# Laboratory results taken from patent US20240041986A1, “METHODS AND COMPOSITIONS FOR THE TREATMENT AND PREVENTION OF TYPE 1 DIABETES” (Dr. Mary Morris & Associates, LLC, priority 2020, published 2024).
# Tests used:
# Format in all cases: in vivo, mouse
# anti-insulin antibodies = assay: Anti-insulin antibody ELISA of serum from sublingually treated NOD mice
# Method: Autoantibody titer assay. To detect anti-insulin antibodies 96-well ELISA plates were coated with 1 μg/well of Humulin® overnight at 4° C. and were blocked with 1% BSA in PBS. Sera were divided into two equal aliquots that were incubated with or without 10 μg/ml Humulin® on ice for 1 h. The sera were then added to Humulin® coated plates for incubation overnight at 4° C. After extensive washes, the plates were incubated with HRP-conjugated goat anti-mouse IgG The assay is described in Wan et al., J Exp Med. 2016 May 30; 213(6): 967-978.
# Five-week old female NOD mice were randomly assigned to two groups: (1) control group (50% PBS/glycerin); and (2) insulin-related peptide treatment (Humulin® insulin) started at six weeks of age. Mice in the treatment group (2) were sublingually administered 87 μg of Humulin® in 50% glycerin solution twice per day, five days per week, up to 30 weeks of age. Serum samples were collected from control and Humulin® SLIT treated NOD mice at 14 weeks of age and assessed for levels of anti-insulin antibody titer (i.e., after sublingual administration of Humulin® for 8 weeks) and stored at −80 C until tested for anti-insulin antibodies in the ELISA described above. The level of anti-insulin antibodies in the samples was determined by ELISA using the assay described in Wan et al., J Exp Med. 2016 May 30; 213(6): 967-978 and the results are shown in FIG. 2. […]
# C-peptide = assay: Serum C-peptide ELISA (ALPCO) in sublingually treated NOD mice; conditions: NOD mice fasted overnight, Humulin started at 5 weeks of age, serum at 6 and 19 weeks of age (FIG. 5)
# Method: Serum C-peptide assay. The mouse C-peptide ELISA (ALPCO), which quantifies C-peptide protein products of mouse I and mouse II proinsulin genes, was used. Briefly, mice are fasted overnight and blood is collected by inserting a needle into the submandibular vein and collecting ˜0.2 mL of blood. The blood is centrifuged for 10 minutes at 3000×g in a refrigerated centrifuge, and serum is collected and stored −80° C. The ALPCO C-peptide ELISA is a commercially available FDA Registered For In Vitro Diagnostic Use tool for the quantification of […] C-peptide in serum and plasma samples.
# Female NOD mice were randomly assigned to two groups according to Example 3. C-peptide levels in serum were determined by ALPCO C-peptide ELISA from serum samples collected at 6 and 19 weeks of age in mice that were fasted overnight.
# NOD mice = assay: Incidence and time to onset of Type 1 diabetes (hyperglycemia, blood glucose above 300 mg/dL) in NOD mice after sublingual treatment; conditions: for Median survival: control 21.00; for Median Survival (i.e., time to Type 1 diabetes onset): sublingual 87 μg Humulin, control 21 weeks
# Method: Sublingual formulation. A commercial high dose Humulin® insulin solution (Humulin® R U-500) containing 500 units of insulin per mL is mixed with an additional equal volume (1:1 (vol:vol)) 100% glycerin. Each dose contains 10 μL of the Humulin®-glycerin solution, which contains 2.5 units (approximately 87 micrograms) of insulin in a solution having a final concentration of ˜52 vol. % glycerin.
# NOD mice. Non-obese diabetic (NOD) mice, as described by Makino (Adv. Immunol. 51:285-322 (1992)), are used in the studies described herein. NOD mice provide a widely accepted animal model for the spontaneous development of Type 1 diabetes. NOD mice develop insulitis as a result of leukocyte infiltration into the pancreatic islet, which in turn leads to the destruction of pancreatic islets and a Type 1 diabetic phenotype.
# Five-week old female NOD mice were randomly assigned to three groups: (1) control group (1:1 glycerin/phosphate buffered saline (PBS)); (2) insulin-related peptide treatment (Humulin®) started at six weeks of age; or (3) insulin-related peptide treatment (Humulin®) started at ten weeks of age. Mice in the treatment groups (2) and (3) were sublingually administered 2.5 units/87 μg of Humulin® R insulin (10 μL of solution) twice per day […] from age 5 weeks 5 until 8 weeks of age and then once per day, five days per week up to 30 weeks of age. Blood glucose measurements were taken once per week up to 20 weeks of age, and then twice per week thereafter. Mice were classified as diabetic after three consecutive blood glucose readings above 300 mg/dL (hyperglycemic).
# Female NOD mice were randomly assigned to two groups: (1) control group (50% glycerin/phosphate buffered saline (PBS)); or (2) insulin-related peptide treatment (Humulin® in 50% glycerin solution; Humulin® sublingual immunotherapy (“Humulin SLIT”)) started at five weeks of age. Mice in the treatment group (2) were sublingually administered 87 μg of Humulin® once per day, five days per week starting at five weeks of age up to 30 weeks of age. Blood glucose measurements were taken once per week up to 13 weeks of age, and then twice per week thereafter. Mice were classified as diabetic after three consecutive blood glucose readings above 300 mg/dL (hyperglycemic). […]
# [1] = Humulin started at 5 weeks of age (FIG. 3)
# [2] = Humulin started at 5 weeks of age vs control (FIG. 3)
# [3] = Humulin started at 6 weeks of age (FIG. 1A)
# [4] = Humulin started at 6 weeks of age vs control (FIG. 1A)
# [5] = Humulin started at 10 weeks of age (FIG. 1B)
# [6] = Humulin started at 10 weeks of age vs control (FIG. 1B)
# [7] = combined FIG. 1A and FIG. 3 (FIG. 6)
# [8] = combined FIG. 1A and FIG. 3 vs control (FIG. 6)
substance,measurement,setting,value
"Humulin: commercial recombinant human insulin solution (Humulin® R U-500) mixed 1:1 with glycerin, sublingual formulation, 87 μg per 10 μL dose",development of anti-insulin antibodies as compared to the control group,"anti-insulin antibodies; 87 μg Humulin started at five weeks of age, serum at 19 weeks of age (FIG. 4)",significantly reduced
same,development of anti-insulin antibodies as compared to the control group,"anti-insulin antibodies; 87 μg Humulin started at six weeks of age, serum at 14 weeks of age (FIG. 2)",significantly reduced
same,serum C-peptide levels as compared to untreated control NOD mice,C-peptide,either a maintenance or enhancement
same,Ratio of median survival (Control / Humulin),NOD mice; [1],0.7119
same,Reciprocal of ratio of median survival,NOD mice; [1],1.405
same,Are the survival curves sig different? Gehan-Breslow-Wilcoxon test,NOD mice; [2],Yes
same,Are the survival curves sig different? Log-rank (Mantel-Cox) test,NOD mice; [2],Yes
same,Ratio of median survival (Control / Humulin),NOD mice; [3],0.778
same,Reciprocal of ratio of median survival,NOD mice; [3],1.29
same,Are the survival curves significantly different? Gehan-Breslow-Wilcoxon test,NOD mice; [4],Yes
same,Are the survival curves significantly different? Log-rank (Mantel-Cox) test,NOD mice; [4],Yes
same,Ratio of median survival (Control / Humulin),NOD mice; [5],0.8750
same,Reciprocal of ratio of median survival,NOD mice; [5],1.14
same,Are the survival curves significantly different? Gehan-Breslow-Wilcoxon test,NOD mice; [6],No
same,Are the survival curves significantly different? Log-rank (Mantel-Cox) test,NOD mice; [6],No
same,incidence (% diabetic) and onset time (weeks) of Type 1 diabetes as compared to the control group,"NOD mice; NOD mice, sublingual Humulin started at five weeks of age (FIG. 3)",reduced
same,incidence (% T1D Onset) and onset time (weeks) of Type 1 diabetes as compared to the control group,"NOD mice; NOD mice, sublingual Humulin started at six weeks of age (FIG. 1A)",significantly reduced
same,Ratio of median survival (Control / Humulin),NOD mice; [7],0.8077
same,Reciprocal of ratio of median survival,NOD mice; [7],1.238
same,Are the survival curves sig different? Gehan-Breslow-Wilcoxon test,NOD mice; [8],Yes
same,Are the survival curves sig different? Log-rank (Mantel-Cox) test,NOD mice; [8],Yes
same,Median survival,"NOD mice; combined results of FIG. 1A and FIG. 3, Humulin started at 5 or 6 weeks of age (FIG. 6, time in Weeks)",26.00
same,Median survival,"NOD mice; female NOD mice, sublingual 87 μg Humulin once per day, five days per week, started at 5 weeks of age (FIG. 3, time in Weeks)",29.50
same,"Median Survival (i.e., time to Type 1 diabetes onset)","NOD mice; female NOD mice, started at 6 weeks of age (FIG. 1A)",27 weeks
same,"Median Survival (i.e., time to Type 1 diabetes onset)","NOD mice; female NOD mice, started at 10 weeks of age (FIG. 1B)",24 weeks
